Test [1] addresses NRAS G12C (Homo sapiens (Human), UniProt P01111+P62937, G12C). Description: Ras-Raf disruption/FRET/MOA assay, NRAS G12C. It counts as biochemical. The source says: (§1) Disruption of B-Raf Ras-Binding Domain (BRAF^RBD) Interaction with K-Ras by Compounds of the Invention (Also Called a FRET Assay or an MOA Assay)
(§2) Note—The following protocol describes a procedure for monitoring disruption of K-Ras G12C (GMP-PNP) binding to BRAF^RBD by a compound of the invention. This protocol may also be executed substituting other Ras proteins or nucleotides, such as K-Ras G12D and K-Ras G13D.
(§3) The purpose of this biochemical assay was to measure the ability of test compounds to facilitate ternary complex formation between a nucleotide-loaded K-Ras isoform and Cyclophilin A; the resulting ternary complex disrupts binding to a BRAF^RBD construct, inhibiting K-Ras signaling through a RAF effector. Data is reported as IC50 values.
(§4) In assay buffer containing 25 mM HEPES pH 7.3, 0.002% Tween20, 0.1% BSA, 100 mM NaCl and 5 mM MgCl2, tagless Cyclophilin A, His6-K-Ras-GMPPNP, and GST-BRAF^RBD were combined in a 384-well assay plate at final concentrations of 25 μM, 12.5 nM, and 50 nM, respectively. Compound was present in plate wells as a 10-point 3-fold dilution series starting at a final concentration of 30 μM. After incubation at 25° C. for 3 hours, a mixture of anti-His Eu—W1024 and anti-GST allophycocyanin was then added to assay sample wells at final concentrations of 10 nM and 50 nM, respectively, and the reaction incubated for an additional 1.5 hours. […] Compounds that facilitate disruption of a K-Ras: RAF complex were identified as those eliciting a decrease in the TR-FRET ratio relative to DMSO control wells.

Test [2] concerns AsPC-1 (K-Ras G12D). Description: CellTiter-Glo cell viability assay, AsPC-1. The class given is cell-based, human. To be noted: Homo sapiens, ASPC1, 120 h, read-out: AsPC-1 Cell Viability IC50. A digest of the protocol: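 Four-parameter logistic fits were applied to luminescence data normalized against DMSO-treated wells. Readings were taken on day 5 following direct compound addition, after roughly 30 minutes at room temperature.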

Test [3] addresses KRAS G12C (Homo sapiens (Human), UniProt P01116+P62937, G12C). Description: Ras-Raf disruption/FRET/MOA assay, KRAS G12C. The class given is biochemical.
Description: as §1, §2, §3, §4

The target in test [4] is KRAS G12V (Homo sapiens (Human), UniProt P01116+P62937, G12V). Put plainly: Ras-Raf disruption/FRET/MOA assay, KRAS G12V. The class given is biochemical. The essentials: (§5)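 Measured by TR-FRET: a decrease relative to DMSO indicates disruption of GMPPNP-Ras binding to BRAF^RBD, mediated by Cyclophilin A (25 μM). Compound was tested as a dilution series up to 30 μM with 3 h preincubation at 25° C.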
KRAS G12V, sequence (P01116 other isoform, or with tags, fused parts or gaps G12V): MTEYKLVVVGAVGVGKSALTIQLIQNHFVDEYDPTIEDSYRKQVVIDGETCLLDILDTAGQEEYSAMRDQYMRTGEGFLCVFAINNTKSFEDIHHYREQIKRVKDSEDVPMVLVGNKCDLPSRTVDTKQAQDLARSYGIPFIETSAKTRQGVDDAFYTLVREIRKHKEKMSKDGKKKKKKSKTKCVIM
KRAS G12V, sequence (P62937 whole entry): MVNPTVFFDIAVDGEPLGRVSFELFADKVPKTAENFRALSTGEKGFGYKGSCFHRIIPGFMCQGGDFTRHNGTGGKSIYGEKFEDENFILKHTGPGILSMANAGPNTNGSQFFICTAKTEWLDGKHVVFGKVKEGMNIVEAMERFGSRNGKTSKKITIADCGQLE

In test [5] the test system is AsPC-1 (K-Ras G12D). Put plainly: Potency assay: pERK. It counts as cell-based, human. The note with it: Homo sapiens. A digest of the protocol: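 pERK decrease measured after 4 h compound treatment at 37 °C (10 three-fold dilutions, duplicate wells), by either fixed-cell In-Cell Western with DRAQ5 counterstain or AlphaLISA on lysates. Signal fitted against log concentration with a four-parameter model to give IC50.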

Test [6] has as its target KRAS G13D (Homo sapiens (Human), UniProt P01116+P62937, G13D). Description: Ras-Raf disruption/FRET/MOA assay, KRAS G13D. It counts as biochemical.
Description: as §1, §2, §3, §4

Test [7] addresses KRAS WT (Homo sapiens (Human), UniProt P01116+P62937). Put plainly: Ras-Raf disruption/FRET/MOA assay, KRAS WT. It counts as biochemical. The essentials: as §5
Test [8] deals with KRAS G12S (Homo sapiens (Human), UniProt P01116+P62937, G12S). Description: Ras-Raf disruption/FRET/MOA assay, KRAS G12S. The class given is biochemical.
KRAS G12S, sequence (P01116 other isoform, or with tags, fused parts or gaps G12S): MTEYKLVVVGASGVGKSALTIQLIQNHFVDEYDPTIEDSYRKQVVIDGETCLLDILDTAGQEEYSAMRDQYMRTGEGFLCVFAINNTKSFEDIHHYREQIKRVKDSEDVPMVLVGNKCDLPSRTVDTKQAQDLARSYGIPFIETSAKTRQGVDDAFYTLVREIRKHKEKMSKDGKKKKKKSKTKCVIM
KRAS G12S, sequence (P62937 whole entry): as the sequence (P62937 whole entry) above
Description: as §1, §2, §3, §4

Test [9] concerns the target KRAS G13C (Homo sapiens (Human), UniProt P01116+P62937, G13C). Put plainly: Ras-Raf disruption/FRET/MOA assay, KRAS G13C. It counts as biochemical.
Description: as §1, §2, §3, §4

Test [10] concerns the target KRAS G12D (Homo sapiens (Human), UniProt P01116+P62937, G12D). Put plainly: Ras-Raf disruption/FRET/MOA assay, KRAS G12D. The class given is biochemical.
Description: as §1, §2, §3, §4

The mark [11] stands for this setting: read-out: NRAS G12C FRET data IC50.
Where [12] appears, read: read-out: KRAS G12C FRET data IC50.

Like-named read-outs stand apart in the source and are kept apart here.

KRAS G12C, sequence (P01116-2 other isoform, or with tags, fused parts or gaps G12C): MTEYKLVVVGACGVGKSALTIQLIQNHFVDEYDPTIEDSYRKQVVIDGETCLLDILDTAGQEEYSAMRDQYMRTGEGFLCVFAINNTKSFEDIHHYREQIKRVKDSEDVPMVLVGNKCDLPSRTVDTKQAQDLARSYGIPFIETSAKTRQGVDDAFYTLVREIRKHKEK
KRAS G12C, sequence (P62937 whole entry): as the sequence (P62937 whole entry) above
KRAS G13C, sequence (P01116 other isoform, or with tags, fused parts or gaps G13C): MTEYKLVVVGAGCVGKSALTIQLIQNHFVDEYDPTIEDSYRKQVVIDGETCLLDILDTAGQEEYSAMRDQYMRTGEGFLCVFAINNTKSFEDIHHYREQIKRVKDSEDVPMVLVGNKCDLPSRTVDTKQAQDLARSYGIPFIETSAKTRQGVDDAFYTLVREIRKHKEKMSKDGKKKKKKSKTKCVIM
KRAS G13C, sequence (P62937 whole entry): as the sequence (P62937 whole entry) above
KRAS G13D, sequence (P01116 other isoform, or with tags, fused parts or gaps G13D): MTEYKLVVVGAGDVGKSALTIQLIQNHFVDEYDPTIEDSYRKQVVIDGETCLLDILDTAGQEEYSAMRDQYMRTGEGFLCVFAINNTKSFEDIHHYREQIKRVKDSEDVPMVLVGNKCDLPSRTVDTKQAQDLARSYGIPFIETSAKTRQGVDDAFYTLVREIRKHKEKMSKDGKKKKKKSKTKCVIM
KRAS G13D, sequence (P62937 whole entry): as the sequence (P62937 whole entry) above
NRAS G12C, sequence (P01111 whole entry G12C, the tested form may be a part): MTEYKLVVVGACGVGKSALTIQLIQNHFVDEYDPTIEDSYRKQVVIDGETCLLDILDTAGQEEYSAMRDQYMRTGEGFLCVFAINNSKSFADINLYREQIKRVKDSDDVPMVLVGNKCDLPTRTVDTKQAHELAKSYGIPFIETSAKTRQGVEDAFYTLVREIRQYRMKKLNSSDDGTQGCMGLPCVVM
NRAS G12C, sequence (P62937 whole entry, the tested form may be a part): as the sequence (P62937 whole entry) above
KRAS WT, sequence (P01116 other isoform, or with tags, fused parts or gaps): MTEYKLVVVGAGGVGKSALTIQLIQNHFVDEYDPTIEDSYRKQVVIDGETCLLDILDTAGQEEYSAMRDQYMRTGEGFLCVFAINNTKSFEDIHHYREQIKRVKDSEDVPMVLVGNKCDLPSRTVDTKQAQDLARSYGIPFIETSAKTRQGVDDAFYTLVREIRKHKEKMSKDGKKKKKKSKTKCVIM
KRAS WT, sequence (P62937 whole entry): as the sequence (P62937 whole entry) above
KRAS G12D, sequence (P01116 other isoform, or with tags, fused parts or gaps G12D): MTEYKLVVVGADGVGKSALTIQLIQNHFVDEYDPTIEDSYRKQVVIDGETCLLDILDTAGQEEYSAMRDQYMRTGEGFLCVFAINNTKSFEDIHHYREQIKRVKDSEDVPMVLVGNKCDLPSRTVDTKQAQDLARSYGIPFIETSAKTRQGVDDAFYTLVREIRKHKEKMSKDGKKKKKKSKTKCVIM
KRAS G12D, sequence (P62937 whole entry): as the sequence (P62937 whole entry) above

In the case of `CCn1c(-c2cnccc2COC)c2c3cc(ccc31)-c1cc(O)cc(c1)C[C@H](NC(=O)[C@H](C(C)C)N(C)C(=O)CN(C)C(=O)[C@H]1N[C@@H]1c1ccc(OC)cc1)C(=O)N1CCC[C@H](N1)C(=O)OCC(C)(C)C2` [Example 97], the IC50 in [1] fell in the range of 10 to 100 nM; in test [2] it was 1000 to 10000 nM; in test [3], 10 to 100 nM; in test [4] it was 10 to 100 nM; in test [6], 100 to 1000 nM; in test [7], 10 to 100 nM. Also, the IC50 in test [8] lay in the range of 10 to 100 nM; in test [9], 10 to 100 nM; in test [10], 100 to 1000 nM. Moreover, in [5] (ASPC1, read-out: pERK EC50), the 50% effective concentration (EC50) was less than 5000 nM.
With `CCn1c(-c2cnccc2COC)c2c3cc(ccc31)-c1cc(O)cc(c1)C[C@H](NC(=O)[C@H](C(C)C)N(C)C(=O)CN(C)C(=O)[C@@H]1N[C@@H]1C)C(=O)N1CCC[C@H](N1)C(=O)OCC(C)(C)C2` [Example 105], the IC50 in test [1] was 10 to 100 nM; in test [2], 1000 to 10000 nM; in test [3], 10 to 100 nM; in test [4], 100 to 1000 nM; in [6], 100 to 1000 nM; in test [7] it was 10 to 100 nM. Moreover, the IC50 in test [8] was in the range of 10 to 100 nM; in test [9], 10 to 100 nM; in test [10] it was 100 to 1000 nM. Moreover, the EC50 in test [5] (ASPC1, read-out: pERK EC50) was less than 5000 nM.
For the compound `CCn1c(-c2cnccc2COC)c2c3cc(ccc31)-c1cc(O)cc(c1)C[C@H](NC(=O)[C@H](C(C)C)N(C)C(=O)CN(C)C(=O)[C@H]1N[C@H]1C(=O)OC)C(=O)N1CCC[C@H](N1)C(=O)OCC(C)(C)C2` [Example 51], the IC50 in test [1] was 100 to 1000 nM; in test [2], more than 10000 nM; in test [3] it was 10 to 100 nM; in test [4] it was 100 to 1000 nM; in test [6] it was 100 to 1000 nM; in [7] it was 100 to 1000 nM. Also, the IC50 in test [8] fell in the range of 100 to 1000 nM; in test [9], 10 to 100 nM; in [10] it was 100 to 1000 nM. Besides, in test [5] (ASPC1, read-out: pERK EC50), the concentration for a half-maximal effect (EC50) is less than 5000 nM.
Regarding `CCn1c(-c2cccnc2[C@H](C)OC)c2c3cc(ccc31)-c1cc(O)cc(c1)C[C@H](NC(=O)[C@H](C(C)C)N1CC[C@@]3(CCC(C(=O)[C@@H]4N[C@@H]4C4CC4)C3)C1=O)C(=O)N1CCC[C@H](N1)C(=O)OCC(C)(C)C2` (some centres unmarked) [Example 128], the IC50 lay within 10 to 100 nM in [1] (setting [11]); 1000 to 10000 nM in [2] (K-Ras G12D, 5-day treatment); 10 to 100 nM in test [3] (setting [12]); 100 to 1000 nM in [4] (read-out: KRAS G12V FRET IC50); 100 to 1000 nM in test [6] (read-out: KRAS G13D FRET IC50); 100 to 1000 nM in test [7] (read-out: KRAS WT FRET IC50). The IC50 in test [8] (read-out: KRAS G12S FRET IC50) lay in the range of 100 to 1000 nM; in [9] (read-out: KRAS G13C FRET IC50) it was 10 to 100 nM; in test [10] (read-out: KRAS G12D FRET IC50), 100 to 1000 nM. In [5] (ASPC1, AsPC-1 KRAS G12D, read-out: pERK EC50), the EC50 is less than 5000 nM.
For `CCn1c(-c2cnccc2COC)c2c3cc(ccc31)-c1cc(O)cc(c1)C[C@H](NC(=O)[C@H](C(C)C)N(C)C(=O)CN(C)C(=O)[C@H]1N[C@H]1c1ccc(OC)cc1)C(=O)N1CCC[C@H](N1)C(=O)OCC(C)(C)C2` [Example 93], the IC50 in test [1] is 10 to 100 nM; in [2], more than 10000 nM; in test [3] it was 10 to 100 nM; in test [4], 10 to 100 nM; in [6], 100 to 1000 nM; in test [7], 10 to 100 nM. Moreover, the results for the IC50 in test [8], in test [9] and in test [10] were 10 to 100 nM, 10 to 100 nM and 100 to 1000 nM, respectively. In addition, the EC50 in test [5] (ASPC1, read-out: pERK EC50) is less than 5000 nM.
Take `CCn1c(-c2cccnc2[C@H](C)OC)c2c3cc(ccc31)-c1cc(O)cc(c1)C[C@H](NC(=O)[C@H](C(C)C)N1CCC3(CC(C(=O)[C@H]4CN4)C3)C1=O)C(=O)N1CCC[C@H](N1)C(=O)OCC(C)(C)C2` (some centres unmarked) [Example 115]: the IC50 is less than 10 nM in [1] (setting [11]); more than 10000 nM in test [2] (K-Ras G12D, 5-day treatment); less than 10 nM in [3] (setting [12]); 100 to 1000 nM in test [4] (read-out: KRAS G12V FRET IC50); 10 to 100 nM in test [6] (read-out: KRAS G13D FRET IC50); 10 to 100 nM in test [7] (read-out: KRAS WT FRET IC50). Further, the IC50 lay within 100 to 1000 nM in test [8] (read-out: KRAS G12S FRET IC50), 10 to 100 nM in test [9] (read-out: KRAS G13C FRET IC50) and 100 to 1000 nM in test [10] (read-out: KRAS G12D FRET IC50).

Values taken from patent publication US20250195521A1 (Revolution Medicines, Inc., priority 2020, published 2025).
